Data on three compounds can be found in ChEMBL document CHEMBL1145701, “Spinonin, a novel glycoside from Ononis spinosa subsp. leiosperma” (1997).

The term MIC denotes the lowest concentration found to suppress growth. A higher MIC goes with a less susceptible organism.

One test relates to Pseudomonas aeruginosa. The test can be described thus: Antimicrobial activity against Pseudomonas aeruginosa ATCC 9027 by paper-disk diffusion method. It counts as functional.
In a further test the test system is Streptococcus. The test can be described thus: Antimicrobial activity against beta-hemolytic Streptococcus isolate 48 by paper-disk diffusion method. It is filed as functional.
Another test has as its system Lu1. The test can be described thus: Cytotoxicity against human Lu1 cells. It counts as functional, cell-based.
The subject of the next test is SK-N-SH. The test can be described thus: Cytotoxicity against human SK-N-SH cells […]. It counts as functional, cell-based.
The test system of another test is KBVIN. The test can be described thus: Cytotoxicity against human KBVIN cells in presence of vinblastine. It counts as functional, cell-based.
For another test, the system named is BC1. In words: Cytotoxicity against human BC1 cells. It is filed as functional, cell-based.
The target of test [1] is Human immunodeficiency virus type 1 reverse transcriptase (Human immunodeficiency virus 1) (UniProt Q72547). The test can be described thus: Inhibition of HIV1 reverse transcriptase.

The structures appear in SMILES notation. Values after ≈ are worked out from the molar mass of the structure shown. Active and inactive are the calls of the source. No cut-off for these calls is given here.

As for `COc1ccc2c(c1)O[C@H]1c3ccc(O[C@@H]4O[C@H](CO)[C@@H](O)[C@H](O)[C@H]4O)cc3OC[C@@H]21`, it took 200 µg/mL (≈ 463 µM) to inhibit growth in the test with Pseudomonas aeruginosa (MIC).
For the compound `COc1ccc(-c2coc3cc(O[C@@H]4O[C@H](CO)[C@@H](O)[C@H](O)[C@H]4O)ccc3c2=O)cc1` [ONONIN], the MIC against Streptococcus was found to be 25 µg/mL (≈ 58.1 µM).
`O=C1C=C(c2ccc(O)cc2O[C@@H]2O[C@H](CO)[C@@H](O)[C@H](O)[C@H]2O)O[C@@H]1Cc1ccc(O)cc1` [SPINONIN] had an MIC against Pseudomonas aeruginosa of 200 µg/mL (≈ 434 µM). In addition, the outcome (with Lu1; in the test with SK-N-SH; in the test on KBVIN; in the test with BC1; in test [1]) was inactive.
